The source of these data is ChEMBL document CHEMBL4831509, “Identification, semisynthesis, and anti-inflammatory evaluation of 2,3-seco-clavine-type ergot alkaloids from human intestinal fungus Aspergillus fumigatus CY018” (Eur J Med Chem, 2021).

Experiment [1] deals with RAW264.7. Nature of the experiment: Antiinflammatory activity against LPS-induced mouse RAW264.7 cells assessed as inhibition of NO production preincubated for 1 hr followed by LPS stimulation and measured after 24 hrs by Greiss reagent based assay. The format is functional, cell-based.
The subject of experiment [2] is RAW264.7. The experiment can be described thus: Antiinflammatory activity against LPS-induced MD2-knockdown mouse RAW264.7 cells assessed as reduction in COX-2 mRNA expression by qRT-PCR analysis. In kind it is functional, cell-based. Background: Quantitative PCR measures a nucleic acid by following its amplification.
For experiment [3], the system named is RAW264.7. The experiment can be described thus: Antiinflammatory activity against LPS-induced mouse RAW264.7 cells assessed as reduction in TNF-alpha production at 10 uM preincubated for 1 hr followed by LPS stimulation and measured after 24 hrs by ELISA relative to control. In kind it is functional. As to conditions: time 25 hrs.
In experiment [4] the test system is RAW264.7. Nature of the experiment: Antiinflammatory activity against LPS-induced MD2-knockdown mouse RAW264.7 cells assessed as reduction in TNF-alpha secretion pretreated for 1 hr followed by LPS stimulation and measured after 24 hrs by ELISA. As to conditions: time 25.0 hrs. In kind it is functional, cell-based. Background: An ELISA detects its analyte on a solid surface through an enzyme-linked reagent.

Experiment [5] deals with RAW264.7. The experiment can be described thus: Inhibition of MD2 in LPS-stimulated mouse RAW264.7 cells assessed as reduction in JNK phosphorylation at 2.5 to 10 uM measured by immunoblot analysis. The following applies: dose 2.5-10 µM.
Experiment [6] has as its system RAW264.7. Nature of the experiment: Binding affinity to MD2 in mouse RAW264.7 cells assessed as inhibition of LPS/MD2 colocalization at 10 uM preincubated for 1 hr followed by incubation with FITC-conjugated LPS for 1 hr by DAPI staining based confocal microscopy. The format is cell-based. The following applies: time 2.0 hrs.
Experiment [7] is described as follows: Binding affinity to MD2 (unknown origin) assessed as equilibrium dissociation constant by surface plasmon resonance assay. Further details: species or system Homo sapiens.
For experiment [8], the system named is RAW264.7. The experiment can be described thus: Inhibition of MD2 in LPS-stimulated mouse RAW 264.7 cells assessed as reduction in IKKbeta phosphorylation by western blot analysis. The following applies: dose 2.5-10 µM.
Experiment [9] relates to RAW264.7. The experiment can be described thus: Inhibition of MD2 in LPS-stimulated mouse RAW264.7 cells assessed as reduction in p38 phosphorylation at 2.5 to 10 uM measured by immunoblot analysis. The following applies: dose 2.5-10 µM. In general terms: In western blotting, separated proteins are transferred to a membrane and probed.
Experiment [10] concerns the target T1, Toll-like receptor 4 (Mus musculus) (UniProt Q9QUK6).
T1 sequence (whole entry): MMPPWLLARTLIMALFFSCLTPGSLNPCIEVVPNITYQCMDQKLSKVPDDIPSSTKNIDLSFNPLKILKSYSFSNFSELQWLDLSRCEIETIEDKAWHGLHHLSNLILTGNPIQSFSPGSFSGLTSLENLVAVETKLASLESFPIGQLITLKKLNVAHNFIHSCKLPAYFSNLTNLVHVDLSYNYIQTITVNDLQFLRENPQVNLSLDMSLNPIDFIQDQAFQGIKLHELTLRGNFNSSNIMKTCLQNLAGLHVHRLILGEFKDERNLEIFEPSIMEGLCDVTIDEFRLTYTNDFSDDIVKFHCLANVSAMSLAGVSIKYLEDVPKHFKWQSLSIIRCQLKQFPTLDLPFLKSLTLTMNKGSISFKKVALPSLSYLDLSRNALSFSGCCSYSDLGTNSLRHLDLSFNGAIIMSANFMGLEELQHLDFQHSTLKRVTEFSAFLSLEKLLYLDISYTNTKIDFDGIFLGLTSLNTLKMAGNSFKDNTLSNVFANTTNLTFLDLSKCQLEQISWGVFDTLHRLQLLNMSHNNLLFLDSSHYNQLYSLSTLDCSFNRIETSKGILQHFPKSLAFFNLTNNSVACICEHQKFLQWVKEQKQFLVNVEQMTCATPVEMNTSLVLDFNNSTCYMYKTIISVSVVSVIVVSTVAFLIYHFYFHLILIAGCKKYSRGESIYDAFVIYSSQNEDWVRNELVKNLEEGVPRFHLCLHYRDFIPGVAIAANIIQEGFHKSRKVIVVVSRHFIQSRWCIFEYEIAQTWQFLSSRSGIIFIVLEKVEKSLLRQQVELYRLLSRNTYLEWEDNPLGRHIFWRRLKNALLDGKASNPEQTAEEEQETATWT
The experiment can be described thus: Binding affinity to TLR4 in mouse RAW264.7 cells assessed as inhibition of LPS/TLR4 colocalization at 10 uM preincubated for 1 hr followed by incubation with FITC-conjugated LPS for 1 hr by DAPI staining based confocal microscopy. In kind it is cell-based. The following applies: time 2.0 hrs.

Experiment [11] has as its system RAW264.7. Nature of the experiment: Antiinflammatory activity against LPS-induced MD2-knockdown mouse RAW264.7 cells assessed as reduction in TNF-alpha mRNA expression by qRT-PCR analysis. The format is functional, cell-based.
In experiment [12] the test system is RAW264.7. Nature of the experiment: Inhibition of MD2 in LPS-stimulated mouse RAW264.7 cells assessed as reduction in ERK phosphorylation at 2.5 to 10 uM measured by immunoblot analysis. The following applies: dose 2.5-10 µM.
Experiment [13] concerns RAW264.7. The experiment can be described thus: Antiinflammatory activity against LPS-induced mouse RAW264.7 cells assessed as downregulation of COX2 protein expression at 2.5 to 10 uM by western blot analysis. In kind it is functional, cell-based. As to conditions: dose 2.5-10 µM.
The test system of experiment [14] is RAW264.7. The experiment can be described thus: Antiinflammatory activity against LPS-induced MD2-knockdown mouse RAW264.7 cells assessed as reduction in IL-6 mRNA expression by qRT-PCR analysis. In kind it is functional, cell-based.
Experiment [15] relates to RAW264.7. Nature of the experiment: Downregulation of MD2 expression in mouse RAW264.7 cells at 2.5 to 10 uM by western blot analysis. In kind it is functional, cell-based. As to conditions: dose 2.5-10 µM.
The species entered for experiment [16] is Homo sapiens. Nature of the experiment: Binding affinity to MD2 (unknown origin) assessed as association constant by surface plasmon resonance assay.
Experiment [17] has as its system RAW264.7. Nature of the experiment: Antiinflammatory activity against LPS-induced mouse RAW264.7 cells assessed as reduction in IL-6 production preincubated for 1 hr followed by LPS stimulation and measured after 24 hrs by ELISA. In kind it is functional, cell-based. As to conditions: dose 2.5-10 µM, time 25.0 hrs.
Experiment [18] has as its system RAW264.7. Nature of the experiment: Inhibition of MD2 in LPS-stimulated mouse RAW 264.7 cells assessed as reduction in p65 phosphorylation by western blot analysis. As to conditions: dose 2.5-10 µM.
For experiment [19], the species on record is Homo sapiens. Nature of the experiment: Binding affinity to MD2 (unknown origin) assessed as dissociation constant by surface plasmon resonance assay.
Experiment [20] relates to RAW264.7. Nature of the experiment: Antiinflammatory activity against LPS-induced mouse RAW264.7 cells assessed as downregulation of iNOS protein expression at 2.5 to 10 uM by western blot analysis. In kind it is functional, cell-based. As to conditions: dose 2.5-10 µM.
Experiment [21] has as its system RAW264.7. The experiment can be described thus: Inhibition of MD2 in LPS-stimulated mouse RAW264.7 cells assessed as reduction in p65 nuclear translocation by measuring red fluorescence intensity in nucleus at 10 uM preincubated for 1 hr followed by LPS stimulation and measured after 6 hrs by DAPI staining based confocal microscopy. As to conditions: time 7.0 hrs.

In experiment [22] the test system is RAW264.7. The experiment can be described thus: Inhibition of MD2 in mouse RAW264.7 cells assessed as reduction in LPS-induced TLR4/MD2 complex formation preincubated for 30 mins followed by LPS stimulation for 30 mins by co-immunoprecipitation analysis. The format is cell-based. As to conditions: dose 2.5-10 µM, time 60.0 min.
In experiment [23] the test system is RAW264.7. Nature of the experiment: Downregulation of TLR4 expression in mouse RAW264.7 cells at 2.5 to 10 uM by western blot analysis. The format is functional, cell-based. As to conditions: dose 2.5-10 µM.
Experiment [24] relates to RAW264.7. The experiment can be described thus: Antiinflammatory activity against LPS-induced MD2-knockdown mouse RAW264.7 cells assessed as reduction in iNOS mRNA expression by qRT-PCR analysis. In kind it is functional, cell-based.
For experiment [25], the system named is RAW264.7. Nature of the experiment: Antiinflammatory activity against LPS-induced mouse RAW264.7 cells assessed as reduction in TNF-alpha production preincubated for 1 hr followed by LPS stimulation and measured after 24 hrs by ELISA. In kind it is functional, cell-based. As to conditions: dose 2.5-10 µM, time 25.0 hrs.
Experiment [26] relates to RAW264.7. Nature of the experiment: Antiinflammatory activity against LPS-induced mouse RAW264.7 cells assessed as reduction in IL-6 production at 10 uM preincubated for 1 hr followed by LPS stimulation and measured after 24 hrs by ELISA relative to control. In kind it is functional. The following applies: time 25 hrs.

SMILES strings stand for the structures. Calls of active or inactive are those of the source. No cut-off for these calls is given here.

Consider `COc1ccc2c(c1)c(CC(=O)O)c(C)n2C(=O)c1ccc(Cl)cc1` [INDOMETHACIN], for which the IC50 (commonly the concentration needed to halve the response being measured) in the experiment with RAW264.7 [1] was determined as 11 µM.

On to `C=CC(C)(C)C(=O)Nc1cccc2c1C(=O)C[C@@H]1[C@H]2[C@H](OC(C)=O)[C@@H](C)CN1C`, for which the outcome (in the experiment on RAW264.7 [2]; in the experiment with RAW264.7 [4]; in experiment [10]; in the experiment on RAW264.7 [11]; in the experiment on RAW264.7 [14]; in the experiment on RAW264.7 [24]) was inactive. Besides, the inhibition (usually the percentage by which the read-out fell short of the control) at 10 µM in the experiment on RAW264.7 [3] was 68.2%; in the experiment with RAW264.7 [26] it was 84%. Further, the inhibition result with RAW264.7 [5], in the experiment with RAW264.7 [9], in the experiment on RAW264.7 [12], with RAW264.7 [15], in the experiment with RAW264.7 [21] and in the experiment on RAW264.7 [23] was “Active” each time. The result in the experiment with RAW264.7 [6], in the experiment on RAW264.7 [13] and with RAW264.7 [20] was Active. Besides, in experiment [7], the Kd (usually the free concentration of one partner at which half of the binding sites on the other are occupied at equilibrium, for simple one-to-one binding) was found to be 14.5 µM. The inhibition result in the experiment on RAW264.7 [8], in the experiment on RAW264.7 [18] and with RAW264.7 [22] was “Dose-Dependent Effect” throughout. The IC50 with RAW264.7 [1] was 3.48 µM. The Ka in the experiment listed under Homo sapiens [16] came out at 373 M⁻¹ s⁻¹. The Activity entry in the experiment on RAW264.7 [17] and with RAW264.7 [25] was “Dose-Dependent Effect” throughout. Moreover, in the experiment filed under Homo sapiens [19], the Kdiss turned out to be 0.0054 s⁻¹.

Consider `C=CC(C)(C)c1[nH]c2cccc3c2c1C[C@@H]1[C@@H]3[C@@H](OC(C)=O)[C@H](C)CN1C`, for which, in the experiment with RAW264.7 [1], the IC50 was found to be 22.8 µM.

As to `C=CC(C)(C)C(=O)Nc1cccc2c1C(=O)C[C@H]1NC[C@H](C)[C@@H](OC(C)=O)[C@@H]21`, in the experiment with RAW264.7 [1], the IC50 is 7.83 µM.

`C=CC(C)(C)C(=O)Nc1cccc2c3cc(C)cn(C)c-3cc(=O)c12`: in the experiment on RAW264.7 [1], the IC50 was determined as 9.47 µM.

With `C=CC(C)(C)c1[nH]c2cccc3c2c1C[C@H]1NC[C@@H](C)[C@H](OC(C)=O)[C@H]31`, the IC50 with RAW264.7 [1] is 60.4 µM.

`C=CC(C)(C)C(=O)Nc1cccc2c1C(=O)C[C@@H]1[C@@H]2[C@@H](OC(C)=O)[C@H](C)CN1C`: the IC50 in the experiment with RAW264.7 [1] worked out at 43.2 µM.

Take `C=CC(C)(C)C(=O)Nc1cccc2c1C(=O)C[C@H]1NC[C@@H](C)[C@H](OC(C)=O)[C@H]21`: the IC50 in the experiment with RAW264.7 [1] was 53.3 µM.
